Experiments:
Adenosine deaminase = target: T1, Adenosine deaminase (Bos taurus, UniProt P56658); assay: Inhibition of calf duodenum adenosine deaminase
T1 sequence (P56658 whole entry): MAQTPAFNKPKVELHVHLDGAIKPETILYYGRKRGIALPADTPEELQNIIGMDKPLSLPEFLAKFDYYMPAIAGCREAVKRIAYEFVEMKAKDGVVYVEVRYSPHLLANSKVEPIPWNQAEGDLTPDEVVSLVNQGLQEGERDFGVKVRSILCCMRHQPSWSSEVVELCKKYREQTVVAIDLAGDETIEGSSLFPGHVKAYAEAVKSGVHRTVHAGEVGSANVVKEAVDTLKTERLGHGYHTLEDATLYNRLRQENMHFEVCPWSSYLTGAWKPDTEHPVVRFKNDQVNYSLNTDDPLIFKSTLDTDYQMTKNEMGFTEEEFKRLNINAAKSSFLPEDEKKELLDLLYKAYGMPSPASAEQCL

[1] = target: T2, Steroid 17-alpha-hydroxylase/17,20 lyase (Homo sapiens, UniProt P05093); assay: Reversible inhibition of human cytochrome P450 17alpha
T2 sequence (P05093 whole entry): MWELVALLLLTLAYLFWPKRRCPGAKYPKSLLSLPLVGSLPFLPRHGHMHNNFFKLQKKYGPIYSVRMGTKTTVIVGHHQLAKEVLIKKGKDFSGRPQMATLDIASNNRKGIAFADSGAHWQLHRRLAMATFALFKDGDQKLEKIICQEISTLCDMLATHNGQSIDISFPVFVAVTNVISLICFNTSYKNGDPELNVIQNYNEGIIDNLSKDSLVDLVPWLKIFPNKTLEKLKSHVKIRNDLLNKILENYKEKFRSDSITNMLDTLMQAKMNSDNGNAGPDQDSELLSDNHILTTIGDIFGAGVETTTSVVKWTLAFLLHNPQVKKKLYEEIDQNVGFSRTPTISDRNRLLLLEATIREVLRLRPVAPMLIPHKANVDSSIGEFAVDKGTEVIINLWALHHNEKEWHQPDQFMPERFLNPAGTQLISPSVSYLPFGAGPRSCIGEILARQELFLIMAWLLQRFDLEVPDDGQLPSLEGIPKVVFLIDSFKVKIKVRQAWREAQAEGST

[2] = target: Neuronal acetylcholine receptor; alpha4/beta2 (Homo sapiens, UniProt P17787+P43681); assay: Inhibition of alpha4beta2 nAChR (unknown origin); format: protein-complex assay
Sequence of Neuronal acetylcholine receptor; alpha4/beta2 (P17787 whole entry): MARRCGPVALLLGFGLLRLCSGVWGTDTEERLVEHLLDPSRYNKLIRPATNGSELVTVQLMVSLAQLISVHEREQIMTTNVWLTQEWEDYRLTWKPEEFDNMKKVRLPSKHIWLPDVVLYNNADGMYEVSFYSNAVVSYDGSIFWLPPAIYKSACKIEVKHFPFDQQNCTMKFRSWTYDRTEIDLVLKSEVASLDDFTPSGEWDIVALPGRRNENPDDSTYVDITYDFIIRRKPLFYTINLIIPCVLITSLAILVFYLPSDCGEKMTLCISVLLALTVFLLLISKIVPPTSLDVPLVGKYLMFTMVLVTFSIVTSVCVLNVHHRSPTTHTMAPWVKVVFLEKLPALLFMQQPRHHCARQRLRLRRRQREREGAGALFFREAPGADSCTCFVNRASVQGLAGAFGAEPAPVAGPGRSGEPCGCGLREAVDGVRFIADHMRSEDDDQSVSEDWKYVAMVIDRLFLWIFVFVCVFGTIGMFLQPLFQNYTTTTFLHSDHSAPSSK
Sequence of Neuronal acetylcholine receptor; alpha4/beta2 (P43681 whole entry): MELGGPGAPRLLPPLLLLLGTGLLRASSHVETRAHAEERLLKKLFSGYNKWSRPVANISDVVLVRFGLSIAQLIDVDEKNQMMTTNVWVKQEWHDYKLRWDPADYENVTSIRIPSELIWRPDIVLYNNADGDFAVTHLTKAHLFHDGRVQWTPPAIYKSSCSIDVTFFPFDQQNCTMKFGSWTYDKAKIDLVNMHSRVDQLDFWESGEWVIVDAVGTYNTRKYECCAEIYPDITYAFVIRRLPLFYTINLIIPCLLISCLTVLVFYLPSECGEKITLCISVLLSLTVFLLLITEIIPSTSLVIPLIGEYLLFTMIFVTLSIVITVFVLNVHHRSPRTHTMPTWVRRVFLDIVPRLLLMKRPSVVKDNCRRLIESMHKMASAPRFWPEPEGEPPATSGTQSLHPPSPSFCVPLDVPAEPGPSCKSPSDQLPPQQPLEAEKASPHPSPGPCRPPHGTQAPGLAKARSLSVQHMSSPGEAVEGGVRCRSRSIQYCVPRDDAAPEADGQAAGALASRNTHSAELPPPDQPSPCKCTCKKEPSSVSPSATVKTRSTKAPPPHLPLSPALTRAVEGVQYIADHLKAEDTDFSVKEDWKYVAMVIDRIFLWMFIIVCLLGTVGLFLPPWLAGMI

[3] = target: T2, Steroid 17-alpha-hydroxylase/17,20 lyase; assay: Irreversible inhibition of human cytochrome P450 17alpha

Ki (Adenosine deaminase) | SMILES | further results
9400 nM | OCc1ncnc2c1ncn2[C@@H]1O[C@H](CO)[C@@H](O)[C@H]1O | –
– | C[C@]12CC[C@H]3[C@@H](CC=C4C[C@@H](O)CC[C@@]43C)[C@@H]1CC[C@H]2c1ccncc1 | IC50 [1]: 27 nM
– | Clc1ccc2c(n1)CC1CNCC2C1 (racemic) | Ki [2]: 3.5 nM
– | Clc1cc2c(cn1)C1CNCC(C2)C1 (racemic) | Ki [2]: 0.5 nM
760 nM | OCC1NC=Nc2c1ncn2[C@@H]1O[C@H](CO)[C@@H](O)[C@H]1O (single isomer, unassigned; diastereomer 1) | –
12500 nM | OCC1NC=Nc2c1ncn2[C@@H]1O[C@H](CO)[C@@H](O)[C@H]1O (single isomer, unassigned; diastereomer 2) | –
– | C[C@]12CC[C@H](O)CC1=CC[C@@H]1[C@@H]2CC[C@]2(C)C(c3cccnc3)=CC[C@@H]12 [ABIRATERONE] | IC50 [3]: 5 nM

SMILES | Ki (Adenosine deaminase) | further results
OC[C@H]1O[C@@H](n2cnc3cncnc32)[C@H](O)[C@@H]1O [NEBULARINE] | 9300 nM | –

From ChEMBL document CHEMBL3217489, “Minisci reactions: Versatile CH-functionalizations for medicinal chemists” (Medchemcomm, 2011)
